Measured values as given in article PMC4170002 (Journal of immunology (Baltimore, Md. : 1950), 2014).
Several values for one entry are separate records, joined by “and”; a condition that tells them apart may be missing. Equal values may be shown once. Entries after “also recorded” stand apart in the source; their conditions may differ.

Columns and labels:
Caco-2 permeability = assay type: in vitro ADME; conditions: 5 μM, pH 7.4
JAK1 [1] = molecular target: T1, JAK1 (Homo sapiens, UniProt P23458); test: IL-6-induced pSTAT3 in TF-1 cells; assay type: cell-based; conditions: read-out: IC50 JAK1, pSTAT (cell lines), IL-6, pSTAT3
T1 sequence (P23458 whole entry): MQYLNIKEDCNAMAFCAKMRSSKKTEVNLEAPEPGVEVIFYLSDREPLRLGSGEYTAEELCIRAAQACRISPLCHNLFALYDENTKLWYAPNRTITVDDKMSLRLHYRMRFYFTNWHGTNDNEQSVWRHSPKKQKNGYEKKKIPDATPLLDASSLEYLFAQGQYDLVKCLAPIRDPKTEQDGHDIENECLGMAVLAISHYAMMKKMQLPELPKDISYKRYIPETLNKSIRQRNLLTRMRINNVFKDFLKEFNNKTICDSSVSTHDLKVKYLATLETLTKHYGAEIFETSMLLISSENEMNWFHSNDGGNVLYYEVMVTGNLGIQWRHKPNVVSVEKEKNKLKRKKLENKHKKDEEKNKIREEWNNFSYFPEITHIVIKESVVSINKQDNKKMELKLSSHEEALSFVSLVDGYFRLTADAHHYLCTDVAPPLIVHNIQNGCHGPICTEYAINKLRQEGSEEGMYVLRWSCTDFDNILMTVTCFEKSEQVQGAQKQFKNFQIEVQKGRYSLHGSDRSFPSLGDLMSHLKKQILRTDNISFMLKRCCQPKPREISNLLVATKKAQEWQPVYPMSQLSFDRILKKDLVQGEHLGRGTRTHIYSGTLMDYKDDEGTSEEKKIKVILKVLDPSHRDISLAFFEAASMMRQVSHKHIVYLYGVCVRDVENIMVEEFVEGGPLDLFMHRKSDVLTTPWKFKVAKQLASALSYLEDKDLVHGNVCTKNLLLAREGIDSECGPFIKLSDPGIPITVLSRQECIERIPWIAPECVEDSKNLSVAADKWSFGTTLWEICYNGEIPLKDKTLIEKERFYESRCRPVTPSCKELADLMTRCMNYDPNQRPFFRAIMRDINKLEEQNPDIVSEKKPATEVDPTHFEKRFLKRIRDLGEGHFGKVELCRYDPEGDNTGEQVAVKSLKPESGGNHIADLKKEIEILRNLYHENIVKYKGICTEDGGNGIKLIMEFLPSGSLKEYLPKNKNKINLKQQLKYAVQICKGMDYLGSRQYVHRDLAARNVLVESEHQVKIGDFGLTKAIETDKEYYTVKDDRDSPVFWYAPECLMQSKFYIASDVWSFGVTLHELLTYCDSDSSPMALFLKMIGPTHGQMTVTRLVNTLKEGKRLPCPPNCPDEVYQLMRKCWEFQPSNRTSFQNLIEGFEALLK

JAK3 [2] = molecular target: T2, JAK3 (Homo sapiens, UniProt P52333); test: 33P-ATP kinase assay, JAK3; assay type: biochemical; conditions: read-out: IC50 JAK3; 33P-ATP assay, 10 μM ATP
T2 sequence (P52333 1-1124): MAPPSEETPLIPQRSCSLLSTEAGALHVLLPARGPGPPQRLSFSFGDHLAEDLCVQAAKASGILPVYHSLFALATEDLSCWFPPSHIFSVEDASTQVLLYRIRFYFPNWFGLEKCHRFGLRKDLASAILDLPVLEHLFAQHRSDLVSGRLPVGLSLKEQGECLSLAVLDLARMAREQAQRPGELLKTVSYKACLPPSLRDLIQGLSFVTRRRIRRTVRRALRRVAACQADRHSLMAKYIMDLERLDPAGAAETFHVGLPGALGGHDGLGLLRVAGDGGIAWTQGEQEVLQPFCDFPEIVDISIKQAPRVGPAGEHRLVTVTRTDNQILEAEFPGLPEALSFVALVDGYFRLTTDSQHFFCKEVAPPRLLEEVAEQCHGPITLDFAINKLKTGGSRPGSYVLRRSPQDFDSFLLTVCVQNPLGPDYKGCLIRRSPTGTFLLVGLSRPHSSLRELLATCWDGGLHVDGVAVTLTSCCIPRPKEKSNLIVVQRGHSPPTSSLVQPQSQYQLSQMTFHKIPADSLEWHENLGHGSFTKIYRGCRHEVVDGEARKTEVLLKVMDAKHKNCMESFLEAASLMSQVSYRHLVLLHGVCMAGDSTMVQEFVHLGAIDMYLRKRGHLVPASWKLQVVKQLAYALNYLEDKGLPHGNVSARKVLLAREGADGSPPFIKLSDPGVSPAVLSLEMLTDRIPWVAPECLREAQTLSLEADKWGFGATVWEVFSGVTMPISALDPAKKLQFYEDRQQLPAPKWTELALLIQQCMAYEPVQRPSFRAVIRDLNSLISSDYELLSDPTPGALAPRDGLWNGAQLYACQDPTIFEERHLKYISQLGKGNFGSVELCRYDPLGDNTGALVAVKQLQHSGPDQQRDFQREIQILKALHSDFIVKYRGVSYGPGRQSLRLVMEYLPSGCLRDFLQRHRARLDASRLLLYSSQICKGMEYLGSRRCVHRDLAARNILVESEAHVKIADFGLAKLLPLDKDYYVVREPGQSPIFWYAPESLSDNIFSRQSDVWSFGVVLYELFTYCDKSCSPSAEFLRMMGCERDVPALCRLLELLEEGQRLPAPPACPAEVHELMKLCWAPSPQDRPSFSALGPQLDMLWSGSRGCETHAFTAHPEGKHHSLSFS

TYK2 [3] = molecular target: T3, TYK2 (Homo sapiens, UniProt P29597); test: 33P-ATP kinase assay, TYK2; assay type: biochemical; conditions: read-out: IC50 TYK2; 33P-ATP assay, 10 μM ATP
T3 sequence (P29597 whole entry): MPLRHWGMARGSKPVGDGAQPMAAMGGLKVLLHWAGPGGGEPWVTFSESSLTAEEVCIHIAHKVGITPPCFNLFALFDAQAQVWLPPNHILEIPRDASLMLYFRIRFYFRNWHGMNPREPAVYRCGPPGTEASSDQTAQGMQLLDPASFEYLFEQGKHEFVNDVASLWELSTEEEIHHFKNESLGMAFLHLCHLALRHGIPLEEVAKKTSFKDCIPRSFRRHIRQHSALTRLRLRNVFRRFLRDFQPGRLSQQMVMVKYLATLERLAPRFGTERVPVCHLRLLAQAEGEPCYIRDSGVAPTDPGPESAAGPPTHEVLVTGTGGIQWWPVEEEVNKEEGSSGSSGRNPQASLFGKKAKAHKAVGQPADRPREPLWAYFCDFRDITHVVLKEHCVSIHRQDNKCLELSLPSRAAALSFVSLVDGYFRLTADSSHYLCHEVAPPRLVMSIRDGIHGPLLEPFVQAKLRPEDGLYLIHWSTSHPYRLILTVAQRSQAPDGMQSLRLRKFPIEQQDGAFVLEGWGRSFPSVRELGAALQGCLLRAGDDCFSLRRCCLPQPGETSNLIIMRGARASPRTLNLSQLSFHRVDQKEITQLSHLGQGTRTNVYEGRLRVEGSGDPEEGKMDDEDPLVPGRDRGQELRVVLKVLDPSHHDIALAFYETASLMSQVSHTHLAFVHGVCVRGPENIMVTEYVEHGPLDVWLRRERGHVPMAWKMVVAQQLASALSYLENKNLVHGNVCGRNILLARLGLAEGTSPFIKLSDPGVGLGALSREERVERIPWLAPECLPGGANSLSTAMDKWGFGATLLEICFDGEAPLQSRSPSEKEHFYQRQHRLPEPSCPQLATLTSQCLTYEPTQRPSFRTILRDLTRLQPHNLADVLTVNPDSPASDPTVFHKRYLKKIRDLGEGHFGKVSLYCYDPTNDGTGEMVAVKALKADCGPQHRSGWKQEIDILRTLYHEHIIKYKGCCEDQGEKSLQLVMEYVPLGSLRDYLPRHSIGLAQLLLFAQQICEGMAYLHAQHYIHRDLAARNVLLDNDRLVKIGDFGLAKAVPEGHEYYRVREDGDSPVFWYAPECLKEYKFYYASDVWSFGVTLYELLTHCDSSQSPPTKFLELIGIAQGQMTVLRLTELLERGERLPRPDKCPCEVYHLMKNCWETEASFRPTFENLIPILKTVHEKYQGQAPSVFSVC

IFN-α signaling = test: HEK-BLUE IFN-α/β SEAP reporter assay; assay type: cell-based; conditions: HEK-BLUE IFN-α/β cells, 200 U IFN-α, 24 hours
IL-12 signaling = test: IL-12-induced IFN-γ production in PBMCs; assay type: cell-based; conditions: human PBMCs, 10 ng/mL IL-12, 24 hours
Splenic CD4+ cells = test: T helper cell development; assay type: cell-based, mouse; conditions: 1 μM, 4 days; for IFN-γ production in Th1 cells: Th1 conditions; for IL-4 in Th2 cultures: Th2 conditions; for Foxp3+ cells under Th17-skewing conditions / percent of IL-17+ cells: Th17-skewing conditions; for development of iTregs: iTreg conditions
[4] = system: imiquimod-induced dermatitis; test: Imiquimod-induced psoriasis-like dermatitis; assay type: in vivo
IL-22 signaling [5] = test: IL-22-induced pSTAT3 in HT-29 cells; assay type: cell-based, human
JAK3 [6] = molecular target: T2, JAK3; test: TR-FRET STAT3 phosphorylation assay, JAK3; conditions: read-out: IC50 JAK3, 10 μM ATP, GFP-STAT3
non-JAK kinases = test: Kinome analysis; assay type: biochemical; conditions: 100 nM
IL-22 signaling [7] = test: IL-22-induced Serum Amyloid A; assay type: in vivo, mouse; conditions: 50 mg/kg p.o., C57BL/6 mice, 10 μg IL-22, 6 hours, vs vehicle
TYK2 [8] = molecular target: T3, TYK2; test: IL-12-induced pSTAT4 in primary CD4+ cells; assay type: cell-based; conditions: read-out: IC50 TYK2, pSTAT (primary cells), IL-12, pSTAT4
JAK1 [9] = molecular target: T1, JAK1; test: 33P-ATP kinase assay, JAK1; assay type: biochemical; conditions: read-out: IC50 JAK1; 33P-ATP assay, 10 μM ATP
TYK2 [10] = molecular target: T3, TYK2; test: TR-FRET STAT3 phosphorylation assay, TYK2; conditions: read-out: IC50 TYK2, 10 μM ATP, GFP-STAT3
CD4+ T cells = test: CD4+ T cell proliferation; assay type: cell-based, mouse; conditions: anti-CD28/anti-TCR, 4 days
[11] = In vivo pharmacokinetics in CD-1 mice; design: species or system mouse; conditions: for Cmax or Co: CD-1 mice
IL-12 signaling in vivo = test: IL-12/IL-18-induced serum IFN-γ in vivo; design: species or system mouse; conditions: 60 mg/kg, 30 minutes prior to IL-12/IL-18, vs vehicle
JAK1 [12] = molecular target: T1, JAK1; test: IL-6-induced pSTAT3 in primary CD4+ cells; assay type: cell-based; conditions: read-out: IC50 JAK1, pSTAT (primary cells), IL-6, pSTAT3
[13] = Mouse liver microsome stability; assay type: in vitro ADME; conditions: 0.5 μM
JAK3 [14] = molecular target: T2, JAK3; test: IL-2-induced pSTAT5 in PBMCs; assay type: cell-based; conditions: read-out: IC50 JAK3, pSTAT (primary cells), IL-2, pSTAT5
JAK1 [15] = molecular target: T1, JAK1; test: TR-FRET STAT3 phosphorylation assay, JAK1; conditions: read-out: IC50 JAK1, 10 μM ATP, GFP-STAT3
TYK2 [16] = molecular target: T3, TYK2; test: IL-12-induced pSTAT4 in NK-92 cells; assay type: cell-based; conditions: read-out: IC50 TYK2, pSTAT (cell lines), IL-12, pSTAT4
[17] = 50 mg/kg p.o. twice daily, back skin
[18] = 50 mg/kg, qPCR, vs wild type and TYK2 mutant mice

NC(=O)c1nc(-c2c(F)cccc2Cl)oc1Nc1ccc(C(=O)N2CCOCC2)cc1 [SAR-20347]
Caco-2 AB: BA (Caco-2 permeability): 1.3 | Caco-2 permeability (Caco-2 permeability): good permeability | IC50 (JAK1 [1]): 345 nM | IC50 (JAK3 [2]): 41 ± 11 nM | IC50 (TYK2 [3]): 0.6 ± 0.1 nM | inhibition of SEAP production (IFN-α signaling): dose-dependently inhibited the production of SEAP | inhibition of IL-12 induced IFN-γ production (IL-12 signaling): dose-dependent inhibition of IFN-γ production; also recorded: complete inhibition | IFN-γ production in Th1 cells (Splenic CD4+ cells): potently blocked IFN-γ production | IL-4 in Th2 cultures (Splenic CD4+ cells): capable of reducing IL-4 | Foxp3+ cells under Th17-skewing conditions (Splenic CD4+ cells): dramatic increase in Foxp3+ cells | percent of IL-17+ cells (Splenic CD4+ cells): reduces the percent of IL-17+cells | development of iTregs (Splenic CD4+ cells): did not alter the development of iTregs | gross toxicity ([4]; 50 mg/kg p.o. twice daily): no gross toxicity | Ki67 staining [4, 17]: significantly reduced | histological score [4, 17]: significantly reduced | keratinocyte cell numbers [4, 17]: significantly reduced | scaling and redness (clinical score) ([4]; 50 mg/kg p.o. twice daily, vs TYK2 mutant or vehicle-treated wild type mice): markedly reduced scaling and redness | IL-2 expression levels in the skin ([4]; 50 mg/kg, qPCR): did not affect | IL-10 expression levels in the skin ([4]; 50 mg/kg, qPCR): did not affect | S100A8 gene expression in the skin ([4]; 50 mg/kg, qPCR): significantly decreased | S100A9 gene expression in the skin ([4]; 50 mg/kg, qPCR): significantly decreased | defensin β1 gene expression in the skin ([4]; 50 mg/kg, qPCR): significantly decreased | IL-6 mRNA expression in the skin [4, 18]: significantly reduced expression | IL-17 mRNA expression in the skin [4, 18]: significantly reduced expression | IL-20 mRNA expression in the skin [4, 18]: significantly reduced expression | IL-22 mRNA expression in the skin [4, 18]: significantly reduced expression | IL-23 mRNA expression in the skin [4, 18]: significantly reduced expression | TNF mRNA expression in the skin [4, 18]: significantly reduced expression | IL-17 production (average signal intensity) ([4]; 50 mg/kg, skin IHC): significantly reduced IL-17 production | Vγ3 expression (average signal intensity) ([4]; 50 mg/kg, skin IHC): significantly lower | number of CD4+ cells in skin ([4]; 50 mg/kg, skin IHC): not affected | inhibition of STAT3 phosphorylation (IL-22 signaling [5]; 10 μM): 94% | IC50 (IL-22 signaling [5]; read-out: IC50 IL-22-induced pSTAT3, 10 ng/mL IL-22, 15 minutes): 148 nM | IC50 (JAK3 [6]): 1440 ± 630 nM | inhibitory activity towards non-JAK kinases (non-JAK kinases): comparable to the previously established values for tofacitinib and ruxolitinib | decrease of SAA levels (IL-22 signaling [7]): 45% | IC50 (TYK2 [8]): 107 nM | IC50 (JAK1 [9]): 23 ± 19 nM | IC50 (TYK2 [10]): 13 ± 3 nM | CD4+ T cell proliferation (CD4+ T cells): inhibited proliferation to a comparable extent | doses significantly decreasing proliferation compared to 0 μM (DMSO) (CD4+ T cells; two-way ANOVA): ≥ 0.315 µM | AUC0-8h ([11]; 1 mg/kg (i.v.)): 305 ng/h/mL | Cl ([11]; 1 mg/kg (i.v.)): 52 mL/min/kg and 52.1 mL/min/kg | T1/2 ([11]; 1 mg/kg (i.v.)): 162 min | Cmax or Co ([11]; 1 mg/kg (i.v.)): 433 ng/mL | AUC0-8h ([11]; 10 mg/kg (p.o.)): 2131 ng/h/mL | F ([11]; 10 mg/kg (p.o.)): 69.8% | T1/2 ([11]; 10 mg/kg (p.o.)): 144 min | Tmax ([11]; 10 mg/kg (p.o.)): 24 min | Cmax or Co ([11]; 10 mg/kg (p.o.)): 1343 ng/mL | AUC0-8h ([11]; 50 mg/kg (p.o.)): 18740 ng/h/mL | T1/2 ([11]; 50 mg/kg (p.o.)): 168 min | Tmax ([11]; 50 mg/kg (p.o.)): 30 min | Cmax or Co ([11]; 50 mg/kg (p.o.)): 6273 ng/mL | maximum serum concentration (Tmax) ([11]; mice): 30 min | inhibition of production of IFN-γ in the serum (IL-12 signaling in vivo): 91% | IC50 (JAK1 [12]): 423 nM | clearance rate in mouse liver microsomes [13]: 26 µL/min/mg | half-life in mouse liver microsomes [13]: 52.7 min | IC50 (JAK3 [14]): 1610 nM | IC50 (JAK1 [15]): 59 ± 43 nM | IC50 (TYK2 [16]): 126 nM

C[C@@H]1CCN(C(=O)CC#N)C[C@@H]1N(C)c1ncnc2[nH]ccc12 [Tofacitinib, reference compound]
IFN-γ production in Th1 cells (Splenic CD4+ cells): potently blocked IFN-γ production | IL-4 in Th2 cultures (Splenic CD4+ cells): capable of reducing IL-4 | Foxp3+ cells under Th17-skewing conditions (Splenic CD4+ cells): no effect on Th17 skewing or change in the number of Foxp3+ cells | percent of IL-17+ cells (Splenic CD4+ cells): no effect on Th17 skewing | development of iTregs (Splenic CD4+ cells): significantly reduced iTreg development
